Experiments:
Experiment in all cases: PathHunter β-arrestin GpcrMAX assay
Format in all cases: cell-based
ADORA3 = target: T1, ADORA3 (Homo sapiens, UniProt P0DMS8)
T1 construct: purchased DiscoveRx (Eurofins) gpcrMAX PathHunter β-arrestin panel
Protocol: (§1) GpcrMAX panel biosensor assays were used to characterize taveuniamide F (4, 20 µM) (agonist and antagonist mode). The experiments were carried out by DiscoveRx Corporation (Fremont, CA, USA) as described before, using PathHunter β-arrestin enzyme fragment complementation (EFC) technology.

ADRA2A = target: T2, ADRA2A (Homo sapiens, UniProt P08913)
T2 construct: purchased DiscoveRx (Eurofins) gpcrMAX PathHunter β-arrestin panel
Protocol: as §1

ADRA2B = target: T3, ADRA2B (Homo sapiens, UniProt P18089)
T3 construct: purchased DiscoveRx (Eurofins) gpcrMAX PathHunter β-arrestin panel
Protocol: as §1

ADRA2C = target: T4, ADRA2C (Homo sapiens, UniProt P18825)
T4 construct: purchased DiscoveRx (Eurofins) gpcrMAX PathHunter β-arrestin panel
Protocol: as §1

ADRB1 = target: T5, ADRB1 (Homo sapiens, UniProt P08588)
T5 construct: purchased DiscoveRx (Eurofins) gpcrMAX PathHunter β-arrestin panel
Protocol: as §1

BRS3 = BRS3 (Homo sapiens, UniProt P32247)
Protocol: as §1

CALCR-RAMP2 = CALCR-RAMP2 (Homo sapiens, UniProt O60895+P30988)
Protocol: as §1

CCR10 = target: T6, CCR10 (Homo sapiens, UniProt P46092)
T6 construct: purchased DiscoveRx (Eurofins) gpcrMAX PathHunter β-arrestin panel
Protocol: as §1

CCR2 = target: T7, CCR2 (Homo sapiens, UniProt P41597)
T7 construct: purchased DiscoveRx (Eurofins) gpcrMAX PathHunter β-arrestin panel
T7 sequence (P41597 whole entry): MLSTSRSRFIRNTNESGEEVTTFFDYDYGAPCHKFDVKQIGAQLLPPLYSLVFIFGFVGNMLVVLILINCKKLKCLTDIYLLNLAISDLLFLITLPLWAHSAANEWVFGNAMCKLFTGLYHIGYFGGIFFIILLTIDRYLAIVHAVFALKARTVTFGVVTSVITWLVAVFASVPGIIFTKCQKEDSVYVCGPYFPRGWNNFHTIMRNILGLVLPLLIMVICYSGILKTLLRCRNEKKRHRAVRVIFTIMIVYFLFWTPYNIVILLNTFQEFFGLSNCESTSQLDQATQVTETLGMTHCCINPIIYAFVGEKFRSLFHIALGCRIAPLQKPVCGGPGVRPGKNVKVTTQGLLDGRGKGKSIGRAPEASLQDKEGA
Protocol: as §1

CCR7 = target: T8, CCR7 (Homo sapiens, UniProt P32248)
T8 construct: purchased DiscoveRx (Eurofins) gpcrMAX PathHunter β-arrestin panel
Protocol: as §1

CHRM3 = target: T9, CHRM3 (Homo sapiens, UniProt P20309)
T9 construct: purchased DiscoveRx (Eurofins) gpcrMAX PathHunter β-arrestin panel
Protocol: as §1

CXCR2 = target: T10, CXCR2 (Homo sapiens, UniProt P25025)
T10 construct: purchased DiscoveRx (Eurofins) gpcrMAX PathHunter β-arrestin panel
T10 sequence (P25025 whole entry): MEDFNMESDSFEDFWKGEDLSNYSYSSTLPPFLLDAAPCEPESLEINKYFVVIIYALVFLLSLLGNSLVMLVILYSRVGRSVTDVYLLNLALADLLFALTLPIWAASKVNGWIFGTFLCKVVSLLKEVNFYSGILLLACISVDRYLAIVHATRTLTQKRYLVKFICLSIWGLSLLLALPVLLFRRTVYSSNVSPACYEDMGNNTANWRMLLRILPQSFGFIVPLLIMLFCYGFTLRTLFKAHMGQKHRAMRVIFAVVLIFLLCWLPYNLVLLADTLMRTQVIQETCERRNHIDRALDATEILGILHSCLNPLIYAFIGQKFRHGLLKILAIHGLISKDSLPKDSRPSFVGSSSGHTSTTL
Protocol: as §1

CXCR5 = target: T11, CXCR5 (Homo sapiens, UniProt P32302)
T11 construct: purchased DiscoveRx (Eurofins) gpcrMAX PathHunter β-arrestin panel
T11 sequence (P32302 whole entry): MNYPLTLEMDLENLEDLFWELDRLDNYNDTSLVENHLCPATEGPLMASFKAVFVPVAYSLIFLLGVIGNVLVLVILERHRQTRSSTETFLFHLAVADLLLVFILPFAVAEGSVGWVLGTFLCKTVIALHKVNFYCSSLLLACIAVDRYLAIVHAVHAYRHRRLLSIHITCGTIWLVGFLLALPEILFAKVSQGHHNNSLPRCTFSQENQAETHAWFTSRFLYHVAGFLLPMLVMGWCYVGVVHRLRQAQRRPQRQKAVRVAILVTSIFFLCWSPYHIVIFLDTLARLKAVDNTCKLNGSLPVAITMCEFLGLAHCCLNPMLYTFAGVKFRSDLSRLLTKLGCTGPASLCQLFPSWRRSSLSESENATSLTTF
Protocol: as §1

CXCR6 = target: T12, CXCR6 (Homo sapiens, UniProt O00574)
T12 construct: purchased DiscoveRx (Eurofins) gpcrMAX PathHunter β-arrestin panel
Protocol: as §1

DRD1 = target: T13, DRD1 (Homo sapiens, UniProt P21728)
T13 construct: purchased DiscoveRx (Eurofins) gpcrMAX PathHunter β-arrestin panel
T13 sequence (P21728 whole entry): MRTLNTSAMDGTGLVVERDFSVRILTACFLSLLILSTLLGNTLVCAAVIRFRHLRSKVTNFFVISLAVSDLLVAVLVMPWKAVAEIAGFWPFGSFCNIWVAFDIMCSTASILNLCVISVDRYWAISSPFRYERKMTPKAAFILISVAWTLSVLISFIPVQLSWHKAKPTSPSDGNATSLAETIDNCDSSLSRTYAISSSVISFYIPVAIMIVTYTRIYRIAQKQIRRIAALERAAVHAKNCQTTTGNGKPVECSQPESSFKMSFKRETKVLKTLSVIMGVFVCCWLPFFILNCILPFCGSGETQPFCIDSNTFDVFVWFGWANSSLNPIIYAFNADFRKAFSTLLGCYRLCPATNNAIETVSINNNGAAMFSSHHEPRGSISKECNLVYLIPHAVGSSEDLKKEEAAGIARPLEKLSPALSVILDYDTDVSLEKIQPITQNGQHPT
Protocol: as §1

DRD4 = target: T14, DRD4 (Homo sapiens, UniProt P21917)
T14 construct: purchased DiscoveRx (Eurofins) gpcrMAX PathHunter β-arrestin panel
Protocol: as §1

EDNRA = target: T15, EDNRA (Homo sapiens, UniProt P25101)
T15 construct: purchased DiscoveRx (Eurofins) gpcrMAX PathHunter β-arrestin panel
T15 sequence (P25101 21-427): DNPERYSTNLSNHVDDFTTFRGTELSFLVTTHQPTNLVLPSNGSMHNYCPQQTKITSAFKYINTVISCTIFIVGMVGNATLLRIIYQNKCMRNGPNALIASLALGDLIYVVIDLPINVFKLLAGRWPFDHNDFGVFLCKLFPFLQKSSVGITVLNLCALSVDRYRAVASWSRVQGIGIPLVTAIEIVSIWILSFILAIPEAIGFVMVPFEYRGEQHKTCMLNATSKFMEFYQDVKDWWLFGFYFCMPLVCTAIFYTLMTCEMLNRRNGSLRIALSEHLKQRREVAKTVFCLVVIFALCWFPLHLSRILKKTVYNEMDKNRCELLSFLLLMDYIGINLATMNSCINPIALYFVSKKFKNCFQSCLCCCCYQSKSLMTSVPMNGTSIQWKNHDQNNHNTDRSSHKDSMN
Protocol: as §1

EDNRB = target: T16, EDNRB (Homo sapiens, UniProt P24530)
T16 construct: purchased DiscoveRx (Eurofins) gpcrMAX PathHunter β-arrestin panel
Protocol: as §1

FFAR1 = target: T17, FFAR1 (Homo sapiens, UniProt O14842)
T17 construct: purchased DiscoveRx (Eurofins) gpcrMAX PathHunter β-arrestin panel
T17 sequence (O14842 whole entry): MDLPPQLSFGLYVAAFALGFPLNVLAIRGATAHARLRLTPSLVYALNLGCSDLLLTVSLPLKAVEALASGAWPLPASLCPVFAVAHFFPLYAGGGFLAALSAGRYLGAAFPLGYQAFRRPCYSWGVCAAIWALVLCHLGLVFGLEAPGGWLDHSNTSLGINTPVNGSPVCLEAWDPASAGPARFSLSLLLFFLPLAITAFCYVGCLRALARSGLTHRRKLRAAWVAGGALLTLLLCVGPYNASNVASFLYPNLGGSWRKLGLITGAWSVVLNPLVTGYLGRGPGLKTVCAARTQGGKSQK
Protocol: as §1

FPRL1 = target: T18, FPRL1 (Homo sapiens, UniProt P25090)
T18 construct: purchased DiscoveRx (Eurofins) gpcrMAX PathHunter β-arrestin panel
T18 sequence (P25090 whole entry): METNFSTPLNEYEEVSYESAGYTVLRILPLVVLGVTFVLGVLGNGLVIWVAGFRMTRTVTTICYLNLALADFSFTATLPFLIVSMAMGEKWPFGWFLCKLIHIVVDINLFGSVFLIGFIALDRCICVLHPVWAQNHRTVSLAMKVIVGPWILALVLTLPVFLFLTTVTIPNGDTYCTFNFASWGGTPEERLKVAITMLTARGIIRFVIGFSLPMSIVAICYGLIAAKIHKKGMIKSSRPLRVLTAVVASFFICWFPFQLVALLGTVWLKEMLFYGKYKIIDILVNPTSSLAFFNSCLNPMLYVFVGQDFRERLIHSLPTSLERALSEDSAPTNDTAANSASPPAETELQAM
Protocol: as §1

GCGR = target: T19, GCGR (Homo sapiens, UniProt P47871)
T19 construct: purchased DiscoveRx (Eurofins) gpcrMAX PathHunter β-arrestin panel
Protocol: as §1

GLP2R = target: T20, GLP2R (Homo sapiens, UniProt O95838)
T20 construct: purchased DiscoveRx (Eurofins) gpcrMAX PathHunter β-arrestin panel
Protocol: as §1

GPR35 = target: T21, GPR35 (Homo sapiens, UniProt Q9HC97)
T21 construct: purchased DiscoveRx (Eurofins) gpcrMAX PathHunter β-arrestin panel
Protocol: as §1

HCRTR1 = target: T22, HCRTR1 (Homo sapiens, UniProt O43613)
T22 construct: purchased DiscoveRx (Eurofins) gpcrMAX PathHunter β-arrestin panel
T22 sequence (O43613 whole entry): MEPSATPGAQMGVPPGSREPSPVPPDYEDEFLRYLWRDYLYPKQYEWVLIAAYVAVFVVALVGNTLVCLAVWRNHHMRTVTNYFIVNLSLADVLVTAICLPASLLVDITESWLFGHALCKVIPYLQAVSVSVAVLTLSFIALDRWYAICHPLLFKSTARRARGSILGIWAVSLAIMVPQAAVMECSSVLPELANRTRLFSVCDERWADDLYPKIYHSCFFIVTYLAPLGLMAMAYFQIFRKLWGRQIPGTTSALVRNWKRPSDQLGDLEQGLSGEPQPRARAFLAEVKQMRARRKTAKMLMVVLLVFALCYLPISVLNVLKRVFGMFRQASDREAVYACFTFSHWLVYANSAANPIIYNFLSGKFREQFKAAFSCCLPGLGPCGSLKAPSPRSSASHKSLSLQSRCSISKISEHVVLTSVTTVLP
Protocol: as §1

HRH4 = target: T23, HRH4 (Homo sapiens, UniProt Q9H3N8)
T23 construct: purchased DiscoveRx (Eurofins) gpcrMAX PathHunter β-arrestin panel
Protocol: as §1

HTR1E = target: T24, HTR1E (Homo sapiens, UniProt P28566)
T24 construct: purchased DiscoveRx (Eurofins) gpcrMAX PathHunter β-arrestin panel
Protocol: as §1

HTR5A = target: T25, HTR5A (Homo sapiens, UniProt P47898)
T25 construct: purchased DiscoveRx (Eurofins) gpcrMAX PathHunter β-arrestin panel
Protocol: as §1

KISS1R = target: T26, KISS1R (Homo sapiens, UniProt Q969F8)
T26 construct: purchased DiscoveRx (Eurofins) gpcrMAX PathHunter β-arrestin panel
T26 sequence (Q969F8 whole entry): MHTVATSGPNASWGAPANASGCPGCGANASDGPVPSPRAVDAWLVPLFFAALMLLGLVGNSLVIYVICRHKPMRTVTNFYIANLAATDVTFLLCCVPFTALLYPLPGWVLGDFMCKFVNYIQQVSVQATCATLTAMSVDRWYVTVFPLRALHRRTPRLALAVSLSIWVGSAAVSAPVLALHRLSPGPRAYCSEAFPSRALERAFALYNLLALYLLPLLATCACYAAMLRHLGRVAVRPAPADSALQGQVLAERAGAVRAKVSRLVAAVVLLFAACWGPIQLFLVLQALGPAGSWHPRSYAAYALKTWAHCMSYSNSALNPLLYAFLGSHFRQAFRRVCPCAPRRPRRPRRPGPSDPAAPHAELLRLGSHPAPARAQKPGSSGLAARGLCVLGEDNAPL
Protocol: as §1

LHCGR = target: T27, LHCGR (Homo sapiens, UniProt P22888)
T27 construct: purchased DiscoveRx (Eurofins) gpcrMAX PathHunter β-arrestin panel
Protocol: as §1

MLNR = target: T28, MLNR (Homo sapiens, UniProt O43193)
T28 construct: purchased DiscoveRx (Eurofins) gpcrMAX PathHunter β-arrestin panel
Protocol: as §1

NPFFR1 = target: T29, NPFFR1 (Homo sapiens, UniProt Q9GZQ6)
T29 construct: purchased DiscoveRx (Eurofins) gpcrMAX PathHunter β-arrestin panel
Protocol: as §1

OXTR = target: T30, OXTR (Homo sapiens, UniProt P30559)
T30 construct: purchased DiscoveRx (Eurofins) gpcrMAX PathHunter β-arrestin panel
Protocol: as §1

P2RY11 = target: T31, P2RY11 (Homo sapiens, UniProt Q96G91)
T31 construct: purchased DiscoveRx (Eurofins) gpcrMAX PathHunter β-arrestin panel
Protocol: as §1

P2RY4 = target: T32, P2RY4 (Homo sapiens, UniProt P51582)
T32 construct: purchased DiscoveRx (Eurofins) gpcrMAX PathHunter β-arrestin panel
Protocol: as §1

P2RY6 = target: T33, P2RY6 (Homo sapiens, UniProt Q15077)
T33 construct: purchased DiscoveRx (Eurofins) gpcrMAX PathHunter β-arrestin panel
T33 sequence (Q15077 whole entry): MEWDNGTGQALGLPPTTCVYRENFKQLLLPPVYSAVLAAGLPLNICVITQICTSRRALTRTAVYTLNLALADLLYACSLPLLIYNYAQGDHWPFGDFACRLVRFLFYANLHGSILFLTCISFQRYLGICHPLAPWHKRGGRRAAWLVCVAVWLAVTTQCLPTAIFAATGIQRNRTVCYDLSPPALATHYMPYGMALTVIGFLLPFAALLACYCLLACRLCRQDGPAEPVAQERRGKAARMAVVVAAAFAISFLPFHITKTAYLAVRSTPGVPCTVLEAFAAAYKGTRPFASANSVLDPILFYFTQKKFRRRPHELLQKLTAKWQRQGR
Protocol: as §1

PTAFR = target: T34, PTAFR (Homo sapiens, UniProt P25105)
T34 construct: purchased DiscoveRx (Eurofins) gpcrMAX PathHunter β-arrestin panel
T34 sequence (P25105 whole entry): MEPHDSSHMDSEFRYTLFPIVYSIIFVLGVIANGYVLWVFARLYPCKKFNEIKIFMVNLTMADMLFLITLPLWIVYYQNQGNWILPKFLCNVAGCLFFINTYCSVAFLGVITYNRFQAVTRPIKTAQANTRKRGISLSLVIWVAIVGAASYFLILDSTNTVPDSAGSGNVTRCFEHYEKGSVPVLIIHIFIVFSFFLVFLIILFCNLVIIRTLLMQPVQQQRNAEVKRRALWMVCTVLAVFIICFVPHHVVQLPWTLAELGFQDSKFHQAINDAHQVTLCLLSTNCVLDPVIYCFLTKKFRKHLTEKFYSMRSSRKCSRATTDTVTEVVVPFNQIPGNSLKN
Protocol: as §1

PTGIR = target: T35, PTGIR (Homo sapiens, UniProt P43119)
T35 construct: purchased DiscoveRx (Eurofins) gpcrMAX PathHunter β-arrestin panel
Protocol: as §1

SCTR = target: T36, SCTR (Homo sapiens, UniProt P47872)
T36 construct: purchased DiscoveRx (Eurofins) gpcrMAX PathHunter β-arrestin panel
T36 sequence (P47872 23-440): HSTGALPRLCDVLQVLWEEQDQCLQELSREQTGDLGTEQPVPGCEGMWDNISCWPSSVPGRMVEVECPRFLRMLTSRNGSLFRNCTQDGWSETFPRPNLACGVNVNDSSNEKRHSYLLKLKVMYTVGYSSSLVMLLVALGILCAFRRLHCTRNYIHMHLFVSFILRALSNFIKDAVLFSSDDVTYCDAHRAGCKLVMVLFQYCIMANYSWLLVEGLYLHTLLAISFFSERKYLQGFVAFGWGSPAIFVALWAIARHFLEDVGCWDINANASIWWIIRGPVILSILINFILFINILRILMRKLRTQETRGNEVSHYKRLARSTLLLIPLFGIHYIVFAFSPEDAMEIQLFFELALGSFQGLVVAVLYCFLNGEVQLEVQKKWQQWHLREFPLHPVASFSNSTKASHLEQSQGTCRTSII
Protocol: as §1

TACR1 = target: T37, TACR1 (Homo sapiens, UniProt P25103)
T37 construct: purchased DiscoveRx (Eurofins) gpcrMAX PathHunter β-arrestin panel
Protocol: as §1

TACR3 = target: T38, TACR3 (Homo sapiens, UniProt P29371)
T38 construct: purchased DiscoveRx (Eurofins) gpcrMAX PathHunter β-arrestin panel
Protocol: as §1

TBXA2R = target: T39, TBXA2R (Homo sapiens, UniProt P21731)
T39 construct: purchased DiscoveRx (Eurofins) gpcrMAX PathHunter β-arrestin panel
Protocol: as §1

UTR2 = target: T40, UTR2 (Homo sapiens, UniProt Q9UKP6)
T40 construct: purchased DiscoveRx (Eurofins) gpcrMAX PathHunter β-arrestin panel
T40 sequence (Q9UKP6 whole entry): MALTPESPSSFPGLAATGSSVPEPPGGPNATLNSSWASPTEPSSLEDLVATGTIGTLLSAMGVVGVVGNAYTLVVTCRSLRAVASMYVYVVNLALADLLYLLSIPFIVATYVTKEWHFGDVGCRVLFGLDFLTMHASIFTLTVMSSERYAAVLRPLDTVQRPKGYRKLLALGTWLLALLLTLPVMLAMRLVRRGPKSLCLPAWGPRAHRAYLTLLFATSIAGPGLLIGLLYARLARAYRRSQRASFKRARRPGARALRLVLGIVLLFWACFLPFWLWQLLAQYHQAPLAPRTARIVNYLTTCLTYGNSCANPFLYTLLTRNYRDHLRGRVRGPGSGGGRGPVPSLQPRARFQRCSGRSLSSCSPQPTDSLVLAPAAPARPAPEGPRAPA
Protocol: as §1

VIPR1 = target: T41, VIPR1 (Homo sapiens, UniProt P32241)
T41 construct: purchased DiscoveRx (Eurofins) gpcrMAX PathHunter β-arrestin panel
Protocol: as §1

An inhibition at 20 µM (ADORA3) of 1%, an inhibition at 20 µM (ADRA2A) of 42.3% and an inhibition at 20 µM (ADRA2B) of 10.7% were found for `CC(=O)N[C@@H](CCCC#C/C=C/Cl)CCCCCCC(Cl)Cl` [Compound 4, taveuniamide F] in this work. For the same compound, the inhibition at 20 µM (ADRA2C) was 25.1%, the inhibition at 20 µM (ADRB1) was 52.7% and the inhibition at 20 µM (BRS3) was 15.9%. For the same compound, the inhibition at 20 µM (CALCR-RAMP2) was 58.6%, the inhibition at 20 µM (CCR10) was 33.3% and the inhibition at 20 µM (CCR2) was -1.7%. It also gave an inhibition at 20 µM (CCR7) of 8.2%, an inhibition at 20 µM (CHRM3) of 59.9% and an inhibition at 20 µM (CXCR2) of 20.5%. The inhibition at 20 µM (CXCR5) was 5.1%, the inhibition at 20 µM (CXCR6) was 33.1% and the inhibition at 20 µM (DRD1) was 18.6%. For the same compound, the inhibition at 20 µM (DRD4) was 20.8%, the inhibition at 20 µM (EDNRA) was 30.7% and the inhibition at 20 µM (EDNRB) was 23%. The inhibition at 20 µM (FFAR1) was 42%, the inhibition at 20 µM (FPRL1) was 2.5% and the inhibition at 20 µM (GCGR) was 2.2%. The inhibition at 20 µM (GLP2R) was 20.4%, the inhibition at 20 µM (GPR35) was 27.1% and the inhibition at 20 µM (HCRTR1) was 44.9%. It also gave an inhibition at 20 µM (HRH4) of 38.1%, an inhibition at 20 µM (HTR1E) of 26.8% and an inhibition at 20 µM (HTR5A) of 45.6%. For the same compound, the inhibition at 20 µM (KISS1R) was 31.5%, the inhibition at 20 µM (LHCGR) was 56.3% and the inhibition at 20 µM (MLNR) was 53.1%. For the same compound, the inhibition at 20 µM (NPFFR1) was 27.9%, the inhibition at 20 µM (OXTR) was 34.2% and the inhibition at 20 µM (P2RY11) was 8.2%. The inhibition at 20 µM (P2RY4) was 68.8%, the inhibition at 20 µM (P2RY6) was 1.2% and the inhibition at 20 µM (PTAFR) was 14.3%. The inhibition at 20 µM (PTGIR) was 60.2%, the inhibition at 20 µM (SCTR) was 16.9% and the inhibition at 20 µM (TACR1) was 0.5%. For the same compound, the inhibition at 20 µM (TACR3) was 15.2%, the inhibition at 20 µM (TBXA2R) was -4.4% and the inhibition at 20 µM (UTR2) was 17.7%. The inhibition at 20 µM (VIPR1) was -2.9%.
